Results: patent US20240209005A1, “BICYCLIC HETEROARYL BORONATE DERIVATIVES AS ECTONUCLEOTIDE PYROPHOSPHATASE PHOSPHODIESTERASE 1 INHIBITORS” (RIBOSCIENCE LLC, priority 2021, published 2024)

System: HGS tumor model
Test: Anti-tumor activity in HGS tumor model
Assay type: in vivo
Conditions: animals treated with 20/kg of compound, day 42 after inoculation
Excerpt: […]

`C=CC(=O)N1CCN(CCCn2c(=O)c(-c3c(Cl)c(OC)cc(OC)c3Cl)cc3cnc(NC)nc32)CC1` [8-(3-(4-acryloylpiperazin-1-yl)propyl)-6-(2,6-dichloro-3,5-dimethoxyphenyl)-2-(methylamino)pyrido[2,3-d]pyrimidin-7(8H)-one] was tested. Which tumor size did it give?
Its tumor size is 55 mm3.

Molecular target: T1, ENPP1 (Homo sapiens, UniProt P22413)
T1 sequence (P22413 1-925): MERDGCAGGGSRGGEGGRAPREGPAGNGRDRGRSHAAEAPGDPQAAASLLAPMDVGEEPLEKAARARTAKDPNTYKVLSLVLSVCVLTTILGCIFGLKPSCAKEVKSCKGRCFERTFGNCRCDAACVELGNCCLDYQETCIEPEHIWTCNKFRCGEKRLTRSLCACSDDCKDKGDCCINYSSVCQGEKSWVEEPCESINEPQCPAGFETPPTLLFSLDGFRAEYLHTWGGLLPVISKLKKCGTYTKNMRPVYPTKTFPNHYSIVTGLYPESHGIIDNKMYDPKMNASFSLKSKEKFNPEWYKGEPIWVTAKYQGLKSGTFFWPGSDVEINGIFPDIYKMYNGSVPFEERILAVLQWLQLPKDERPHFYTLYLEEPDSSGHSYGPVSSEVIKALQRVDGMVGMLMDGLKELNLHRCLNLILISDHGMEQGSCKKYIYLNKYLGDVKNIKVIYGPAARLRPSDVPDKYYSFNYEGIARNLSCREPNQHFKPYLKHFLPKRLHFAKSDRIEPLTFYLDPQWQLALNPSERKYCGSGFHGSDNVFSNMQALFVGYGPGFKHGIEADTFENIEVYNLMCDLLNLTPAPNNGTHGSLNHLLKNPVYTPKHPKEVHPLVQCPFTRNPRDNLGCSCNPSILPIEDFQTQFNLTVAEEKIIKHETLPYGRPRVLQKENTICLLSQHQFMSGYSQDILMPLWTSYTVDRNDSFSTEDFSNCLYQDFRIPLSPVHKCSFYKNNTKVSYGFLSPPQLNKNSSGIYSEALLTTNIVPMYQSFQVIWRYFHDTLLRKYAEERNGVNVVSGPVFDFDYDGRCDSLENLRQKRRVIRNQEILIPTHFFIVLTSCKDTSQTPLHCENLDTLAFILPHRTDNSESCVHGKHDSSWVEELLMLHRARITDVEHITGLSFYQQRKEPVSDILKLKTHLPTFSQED
Test: Measurement of pNP-TMP hydrolysis by ENPP1
Assay type: biochemical
Conditions: purified ENPP1, pNP-TMP substrate 500 μM, KM 232 μM; Ki calculated from IC50 by Cheng-Prusoff
Protocol: p-Nitrophenyl thymidine 5′-monophosphate (pNP-TMP) is a synthesized substrate for ENPP1. The ENPP1 enzyme activity assay with pNP-TMP substrate was conducted as follows:
Incubation of ENPP1 with compounds was set at 25° C. for 10 min. […] For each compound dilution, wells with assay buffer (50 mM Tris-HCl, pH8.8, 250 mM NaCl, 0.1 mg/ml BSA, 1% DMSO) only but no ENPP1 were included as controls for subtraction of test compound derived absorbance at 405 nm.
Absorbance at 405 nm was recorded immediately in kinetic mode by PerkinElmer 2300 Enspire multimode plate reader.
For each inhibitor, the specific ENPP1 activity was calculated using the following equation: ENPP1 activity (pmol/min/g)=Adjusted Vmax (OD405 nm/min) X conversion factor (pmol/OD405 nm)/amount of enzyme (g)
Adjusted Vmax=V0×(Km+(S))/(S).
V0=(OD405 nm with ENPP1−OD405 nm ENPP1 blank)/minutes. OD405 nm was plotted, with blank subtracted, against time (minutes), the initial linear rate is V0. […]
The slope is the conversion factor. The percent ENPP1 activity for each sample was calculated using the following equation:
% enzyme activity=sample enzyme activity/MAX Activity×100%.
To determine the IC50 for each compound, compound concentration values and percent enzyme activity values were inserted into GraphPad Prism (GraphPad Prism version 7.0 for Windows, GraphPad Software, La Jolla California USA, www.graphpad.com), and Prism's Transform analysis was used to convert the x-axis values (compound concentration) to logarithms. A sigmoidal variable slope nonlinear regression analysis was performed using the following equation: Y=Bottom+(Top−Bottom)/(1+10^((LogIC50−X)*HillSlope)).

For `CC(=O)Nc1cn(C)c2c(NCc3ccc(B(O)O)cc3)ncnc12` [Cpd. 2, 4-[([7-acetamido-5-methylpyrrolo[3,2-d]pyrimidin-4-yl]-amino)methyl]phenylboronic acid], which Ki is on record?
The Ki was under 1 µM.

With `CCC(=O)Nc1csc2c(NCc3ccc(B(O)O)cc3)ncnc12` [compound 3, 4-[([7-propanamidothieno[3,2-d]pyrimidin-4-yl]amino)-methyl]phenylboronic acid] as the compound, how does the Ki read?
The Ki was under 1 µM.

How did the Ki turn out when `CC(=O)Nc1c[nH]c2c(NCc3ccc(B(O)O)cc3)ncnc12` [compound 7, 4-[([7-acetamido-5H-pyrrolo[3,2-d]pyrimidin-4-yl]amino)-methyl]phenylboronic acid] was run?
Its Ki is under 1 µM.

Which Ki does the source give for `OB(O)c1ccc(CNc2ccnc3cn[nH]c23)cc1` [compound 37, 4-([1H-pyrazolo[4,3-b]pyridin-7-ylamino]methyl)phenyl-boronic acid] here?
The Ki was under 0.1 µM.

Which Ki does the source give for `CC(C)C(=O)Nc1csc2c(NCc3ccc(B(O)O)cc3)ncnc12` [compound 23, 4-([[7-(2-methylpropanamido)thieno[3,2-d]pyrimidin-4-yl]-amino]methyl)phenylboronic acid] here?
Its Ki is over 10 µM.

How did the Ki turn out when `CN(C)C(=O)c1c[nH]c2c(NCc3ccc(B(O)O)cc3)ncnc12` [compound 11, 4-([[7-(dimethylcarbamoyl)-5H-pyrrolo[3,2-d]pyrimidin-4-yl]-amino]methyl)phenylboronic acid] was run?
Its Ki is under 1 µM.
